Source: the CheMixHub viscosity set

Assay: xn = mol fraction of the nth substance listed

NC=O + O
viscosity [mPa·s]
Details | 101 kPa | 101.33 kPa
293.15 K, x1 = 0.0753 | 1.098 | –
293.15 K, x1 = 0.1519 | 1.195 | –
293.15 K, x1 = 0.2309 | 1.318 | –
293.15 K, x1 = 0.2959 | 1.446 | –
293.15 K, x1 = 0.3852 | 1.603 | –
298.15 K, x1 = 0.00687 | 0.921 | –
298.15 K, x1 = 0.1 | 0.9871 | –
298.15 K, x1 = 0.1001 | 1.044 | –
298.15 K, x1 = 0.1998 | 1.161 | –
298.15 K, x1 = 0.2 | 1.121 | –
298.15 K, x1 = 0.212 | 1.182 | –
298.15 K, x1 = 0.3 | 1.262 | –
298.15 K, x1 = 0.3003 | 1.315 | –
298.15 K, x1 = 0.304 | 1.283 | –
298.15 K, x1 = 0.3989 | 1.463 | –
298.15 K, x1 = 0.4 | 1.43 | –
298.15 K, x1 = 0.4997 | 1.698 | –
298.15 K, x1 = 0.5 | 1.631 | –
298.15 K, x1 = 0.551 | 2.101 | –
298.15 K, x1 = 0.5997 | 1.927 | –
298.15 K, x1 = 0.6 | 1.868 | –
298.15 K, x1 = 0.6029 | 2.275 | –
298.15 K, x1 = 0.692 | 2.142 | –
298.15 K, x1 = 0.7 | 2.138 | –
298.15 K, x1 = 0.8 | 2.471 | –
298.15 K, x1 = 0.8004 | 2.508 | –
298.15 K, x1 = 0.9 | 2.881 | –
298.15 K, x1 = 0.9013 | 2.906 | –
303.15 K, x1 = 0.0964 | – | 0.8965
303.15 K, x1 = 0.1998 | – | 1.015
303.15 K, x1 = 0.2994 | – | 1.15
303.15 K, x1 = 0.3996 | – | 1.298
303.15 K, x1 = 0.4999 | – | 1.474
303.15 K, x1 = 0.5995 | – | 1.662
303.15 K, x1 = 0.6999 | – | 1.878
303.15 K, x1 = 0.8001 | – | 2.139
303.15 K, x1 = 0.9 | – | 2.432
308.15 K, x1 = 0.0964 | – | 0.8135
308.15 K, x1 = 0.1 | 0.8181 | –
308.15 K, x1 = 0.1998 | – | 0.9213
308.15 K, x1 = 0.2 | 0.9244 | –
308.15 K, x1 = 0.2994 | – | 1.047
308.15 K, x1 = 0.3 | 1.047 | –
308.15 K, x1 = 0.3996 | – | 1.182
308.15 K, x1 = 0.4 | 1.183 | –
308.15 K, x1 = 0.4999 | – | 1.34
308.15 K, x1 = 0.5 | 1.342 | –
308.15 K, x1 = 0.5995 | – | 1.506
308.15 K, x1 = 0.6 | 1.523 | –
308.15 K, x1 = 0.6999 | – | 1.697
308.15 K, x1 = 0.7 | 1.731 | –
308.15 K, x1 = 0.8 | 2.002 | –
308.15 K, x1 = 0.8001 | – | 1.926
308.15 K, x1 = 0.9 | 2.307 | 2.18
313.15 K, x1 = 0.0964 | – | 0.7424
313.15 K, x1 = 0.1001 | 0.734 | –
313.15 K, x1 = 0.1998 | 0.835 | 0.8455
313.15 K, x1 = 0.2994 | – | 0.9584
313.15 K, x1 = 0.3003 | 0.949 | –
313.15 K, x1 = 0.3989 | 1.091 | –
313.15 K, x1 = 0.3996 | – | 1.08
313.15 K, x1 = 0.4997 | 1.23 | –
313.15 K, x1 = 0.4999 | – | 1.221
313.15 K, x1 = 0.5995 | – | 1.373
313.15 K, x1 = 0.5997 | 1.402 | –
313.15 K, x1 = 0.692 | 1.545 | –
313.15 K, x1 = 0.6999 | – | 1.543
313.15 K, x1 = 0.8001 | – | 1.746
313.15 K, x1 = 0.8004 | 1.813 | –
313.15 K, x1 = 0.9 | – | 1.967
313.15 K, x1 = 0.9013 | 2.102 | –
318.15 K, x1 = 0.0964 | – | 0.6812
318.15 K, x1 = 0.1 | 0.6761 | –
318.15 K, x1 = 0.1998 | – | 0.7768
318.15 K, x1 = 0.2 | 0.7811 | –
318.15 K, x1 = 0.2994 | – | 0.8815
318.15 K, x1 = 0.3 | 0.8781 | –
318.15 K, x1 = 0.3996 | – | 0.993
318.15 K, x1 = 0.4 | 0.9948 | –
318.15 K, x1 = 0.4999 | – | 1.121
318.15 K, x1 = 0.5 | 1.12 | –
318.15 K, x1 = 0.5995 | – | 1.259
318.15 K, x1 = 0.6 | 1.259 | –
318.15 K, x1 = 0.6999 | – | 1.409
318.15 K, x1 = 0.7 | 1.42 | –
318.15 K, x1 = 0.8 | 1.604 | –
318.15 K, x1 = 0.8001 | – | 1.59
318.15 K, x1 = 0.9 | 1.812 | 1.788
323.15 K, x1 = 0.0964 | – | 0.6275
323.15 K, x1 = 0.1998 | – | 0.7165
323.15 K, x1 = 0.2994 | – | 0.8121
323.15 K, x1 = 0.3996 | – | 0.9187
323.15 K, x1 = 0.4999 | – | 1.032
323.15 K, x1 = 0.5995 | – | 1.158
323.15 K, x1 = 0.6999 | – | 1.292
323.15 K, x1 = 0.8001 | – | 1.457
323.15 K, x1 = 0.9 | – | 1.629
